# Structures can show the parent of a compound that is named as a salt.
# Target: T1, Human α-thrombin (Homo sapiens, UniProt P00734)
# T1 construct: Human α-thrombin; purchased Sigma Chemical Co. or Hematologic Technologies
# Assay: Test A: Determination of Thrombin Inhibition with a Chromogenic, Robotic Assay
# Format: biochemical
# Settings: chromogenic substrate S-2366 0.30 mmol/L, α-thrombin 0.020 NIHU/mL, 40 minutes incubation at 37° C.
# Experimental: Determination of Thrombin Inhibition with a Chromogenic, Robotic Assay
# The thrombin inhibitor potency is measured with a chromogenic substrate method, in a Plato 3300 robotic microplate processor (Rosys AG, CH-8634 Hombrechtikon, Switzerland), using 96-well, half volume microtitre plates (Costar, Cambridge, Mass., USA; Cat No 3690). Stock solutions of test substance in DMSO (72 μL), 0.1-1 mmol/L, are diluted serially 1:3 (24+48 μL) with DMSO to obtain ten different concentrations, which are analysed as samples in the assay. 2 μL of test sample is diluted with 124 μL assay buffer, 12 μL of chromogenic substrate solution (S-2366, Chromogenix, Mölndal, Sweden) in assay buffer and finally 12 μL of α-thrombin solution (Human α-thrombin, Sigma Chemical Co. or Hematologic Technologies) in assay buffer, are added, and the samples mixed. The final assay concentrations are: test substance 0.00068-133 μmol/L, S-2366 0.30 mmol/L, α-thrombin 0.020 NIHU/mL. The linear absorbance increment during 40 minutes incubation at 37° C. is used for calculation of percentage inhibition for the test samples, as compared to blanks without inhibitor.
row,SMILES,IC50 [nM]
1,"O=C(N1CC2CC1(C(=O)NCc1cc(Cl)ccc1-n1cnnn1)C2)C1(O)CCOc2ccccc21 (racemic) [Example 64, (rac)-2-(4-Hydroxy-1-benzopyran-4-carbonyl)-2-aza-bicyclo[2.1.1]hexane-1-carboxylic acid 5-chloro-2-tetrazol-1-yl-benzylamide]",40
2,"O=C([C@H](O)Cc1ccccc1)N1CC2CC1(C(=O)NCc1cc(Cl)ccc1-n1cnnn1)C2 [Example 29, 2-((R)-2-Hydroxy-3-phenyl-propionyl)-2-aza-bicyclo[2.1.1]hexane-1-carboxylic acid 5-chloro-2-tetrazol-1-yl-benzylamide]",290
3,"O=C([C@H](O)c1ccccc1)N1CC2CC1(C(=O)NCc1cc(Cl)ccc1-n1cnnn1)C2 [Example 30, 2-((R)-2-Hydroxy-2-phenyl-acetyl)-2-aza-bicyclo[2.1.1]hexane-1-carboxylic acid 5-chloro-2-tetrazol-1-yl-benzylamide]",47
4,"CC(C)(C1CC1)C(O)C(=O)N1[C@H](C(=O)NCc2cc(Cl)ccc2-n2cnnn2)C[C@@H]2C[C@@H]21 (stereo partly drawn) [Example 33, (1S,3S,5S)-2-(3-Cyclopropyl-2-hydroxy-3-methyl-butyryl)-2-aza-bicyclo[3.1.0]hexane-3-carboxylic acid 5-chloro-2-tetrazol-1-yl-benzylamide]",10
5,"O=C(NCc1cc(Cl)ccc1-n1cnnn1)[C@@H]1[C@H]2C[C@H]2CN1C(=O)[C@H](O)c1cc(Cl)cc(OC(F)F)c1 [Example 36, (1S,2S,5R)-3-[2-((R)-3-Chloro-5-difluoromethoxy-phenyl)-2-hydroxy-acetyl]-3-aza-bicyclo[3.1.0]hexane-2-carboxylic acid 5-chloro-2-tetrazol-1-yl-benzylamide]",9
6,"N[C@@H](C(=O)N1[C@H](C(=O)NCc2cc(Cl)ccc2-n2cnnn2)C[C@@H]2C[C@@H]21)c1ccc(O)cc1 [Example 48, (1S,3S,5S)-2-[(R)-2-Amino-2-(4-hydroxy-phenyl)-acetyl]-2-aza-bicyclo[3.1.0]hexane-3-carboxylic acid 5-chloro-2-tetrazol-1-yl-benzylamide hydrochloride]",22
7,"N[C@H](CO)C(=O)N1[C@H](C(=O)NCc2cc(Cl)ccc2-n2cnnn2)C[C@@H]2C[C@@H]21 [Example 49, (1S,3S,5S)-2-((R)-2-Amino-3-hydroxy-propionyl)-2-aza-bicyclo[3.1.0]hexane-3-carboxylic acid 5-chloro-2-tetrazol-1-yl-benzylamide hydrochloride]",450
8,"N[C@H](CO)C(=O)N1[C@@H]2C[C@@H]2C[C@H]1C(=O)NCc1cc(Cl)ccc1-n1cnnn1 [Example 50, (1R,3S,5R)-2-((R)-2-Amino-3-hydroxy-propionyl)-2-aza-bicyclo[3.1.0]hexane-3-carboxylic acid 5-chloro-2-tetrazol-1-yl-benzylamide hydrochloride]",2500
9,O=C(NCc1cc(Cl)ccc1-n1cnnn1)[C@@H]1C[C@@H]2C[C@@H]2N1C(=O)C(O)Cn1cncn1 (stereo partly drawn) [Example 51],420
10,"O=C(NCc1cc(Cl)ccc1-n1cnnn1)[C@@H]1[C@H]2C[C@H]2CN1C(=O)C(O)Cn1cncn1 (stereo partly drawn) [Example 52, (1S,2S,5R)-3-(2-Hydroxy-3-1,2,4-triazol-1-yl-propionyl)-3-aza-bicyclo[3.1.0]hexane-2-carboxylic acid 5-chloro-2-tetrazol-1-yl-benzylamide]",570
11,"CC(C)(C)OC[C@@H](N)C(=O)N1[C@H](C(=O)NCc2cc(Cl)ccc2-n2cnnn2)C[C@@H]2C[C@@H]21 [Example 53, (1S,3S,5S)-2-((R)-2-Amino-3-tert-butoxy-propionyl)-2-aza-bicyclo[3.1.0]hexane-3-carboxylic acid 5-chloro-2-tetrazol-1-yl-benzylamide acetate]",5
12,"CC(C)(C)OC[C@@H](N)C(=O)N1C[C@@H]2C[C@@H]2[C@H]1C(=O)NCc1cc(Cl)ccc1-n1cnnn1 [Example 54, (1S,2S,5R)-3-((R)-2-Amino-3-tert-butoxy-propionyl)-3-aza-bicyclo[3.1.0]hexane-2-carboxylic acid 5-chloro-2-tetrazol-1-yl-benzylamide acetate]",6
13,"CC(C)(C1CC1)C(O)C(=O)N1[C@@H]2C[C@@H]2C[C@H]1C(=O)NCc1cc(Cl)ccc1-n1cnnn1 (stereo partly drawn) [Example 60, (1R,3S,5R)-2-(3-Cyclopropyl-2-hydroxy-3-methyl-butyryl)-2-aza-bicyclo[3.1.0]hexane-3-carboxylic acid 5-chloro-2-tetrazol-1-yl-benzylamide]",14
14,"CC(C)(C1CC1)C(O)C(=O)N1C[C@H]2C[C@H]2[C@H]1C(=O)NCc1cc(Cl)ccc1-n1cnnn1 (stereo partly drawn) [Example 61, (1R,2S,5S)-3-(3-Cyclopropyl-2-hydroxy-3-methyl-butyryl)-3-aza-bicyclo[3.1.0]hexane-2-carboxylic acid 5-chloro-2-tetrazol-1-yl-benzylamide]",15
15,"O=C([C@H](O)CCc1ccccc1)N1CC2CC1(C(=O)NCc1cc(Cl)ccc1-n1cnnn1)C2 [Example 65, 2-((R)-2-Hydroxy-4-phenyl-butyryl)-2-aza-bicyclo[2.1.1]hexane-1-carboxylic acid 5-chloro-2-tetrazol-1-yl-benzylamide]",170
16,"CC(C)(C)OC[C@@H](O)C(=O)N1CC2CC1(C(=O)NCc1cc(Cl)ccc1-n1cnnn1)C2 [Example 66, 2-((R)-3-tert-Butoxy-2-hydroxy-propionyl)-2-aza-bicyclo[2.1.1]hexane-1-carboxylic acid 5-chloro-2-tetrazol-1-yl-benzylamide]",67
17,"O=C([C@H](O)C1CCCCC1)N1CC2CC1(C(=O)NCc1cc(Cl)ccc1-n1cnnn1)C2 [Example 67, 2-((R)-2-Cyclohexyl-2-hydroxy-acetyl)-2-aza-bicyclo[2.1.1]hexane-1-carboxylic acid 5-chloro-2-tetrazol-1-yl-benzylamide]",85

# More lines, in order of falling IC50, values ahead:
row,IC50 [nM],SMILES
1,7,"O=C([C@H](O)C1CCCCC1)N1CC[C@@H]2C[C@@]21C(=O)NCc1cc(Cl)ccc1-n1cnnn1 [Example 27, (1S,5R)-2-((R)-2-Cyclohexyl-2-hydroxy-acetyl)-2-aza-bicyclo[3.1.0]hexane-1-carboxylic acid-5-chloro-2-tetrazol-1-yl-benzylamide]"
2,6,"CC(C)(C)C[C@@H](O)C(=O)N1CC2CC1(C(=O)NCc1cc(Cl)ccc1-n1cnnn1)C2 [Example 28, 2-((R)-2-Hydroxy-4,4-dimethyl-pentanoyl)-2-aza-bicyclo[2.1.1]hexane-1-carboxylic acid 5-chloro-2-tetrazol-1-yl-benzylamide]"
3,5,"N[C@@H](C(=O)N1[C@H](C(=O)NCc2cc(Cl)ccc2-n2cnnn2)C[C@@H]2C[C@@H]21)c1ccccc1 [Example 43, (1S,3S,5S)-2-((R)-2-Amino-2-phenyl-acetyl)-2-aza-bicyclo[3.1.0]hexane-3-carboxylic acid 5-chloro-2-tetrazol-1-yl-benzylamide]"
4,4,"CC(C)(C)C[C@@H](N)C(=O)N1[C@@H]2C[C@@H]2C[C@H]1C(=O)NCc1cc(Cl)ccc1-n1cnnn1 [Example 19, (1R,3S,5R)-2-((R)-2-Amino-4,4-dimethyl-pentanoyl)-2-aza-bicyclo[3.1.0]hexane-3-carboxylic acid 5-chloro-2-tetrazol-1-yl-benzylamide hydrochloride]"
5,4,"O=C(NCc1cc(Cl)ccc1-n1cnnn1)[C@@H]1C[C@@H]2C[C@@H]2N1C(=O)[C@H](O)c1cc(Cl)cc(OC(F)F)c1 [Example 37, (1S,3S,5S)-2-[(R)-2-(3-Chloro-5-difluoromethoxy-phenyl)-2-hydroxy-acetyl]-2-aza-bicyclo[3.1.0]hexane-3-carboxylic acid 5-chloro-2-tetrazol-1-yl-benzylamide]"
6,4,"N[C@H](CC1CCCCC1)C(=O)N1CC2CC1(C(=O)NCc1cc(Cl)ccc1-n1cnnn1)C2 [Example 68, 2-((R)-2-Amino-3-cyclohexyl-propionyl)-2-aza-bicyclo[2.1.1]hexane-1-carboxylic acid 5-chloro-2-tetrazol-1-yl-benzylamide hydrochloride]"
7,3,"O=C(NCc1cc(Cl)ccc1-n1cnnn1)[C@@H]1[C@H]2C[C@H]2CN1C(=O)[C@H](O)c1cccc(Cl)c1 [Example 57, (1S,2S,5R)-3-[(R)-2-(3-Chloro-phenyl)-2-hydroxy-acetyl]-3-aza-bicyclo[3.1.0]hexane-2-carboxylic acid 5-chloro-2-tetrazol-1-yl-benzylamide]"
8,2,"CC(C)(C)C[C@@H](N)C(=O)N1[C@H](C(=O)NCc2cc(Cl)ccc2-n2cnnn2)C[C@@H]2C[C@@H]21 [Example 20, (1S,3S,5S)-2-((R)-2-Amino-4,4-dimethyl-pentanoyl)-2-aza-bicyclo[3.1.0]hexane-3-carboxylic acid 5-chloro-2-tetrazol-1-yl-benzylamide hydrochloride]"
9,2,"CC(C)(C1CC1)C(O)C(=O)N1C[C@@H]2C[C@@H]2[C@H]1C(=O)NCc1cc(Cl)ccc1-n1cnnn1 (stereo partly drawn) [Example 62, (1S,2S,5R)-3-(3-Cyclopropyl-2-hydroxy-3-methyl-butyryl)-3-aza-bicyclo[3.1.0]hexane-2-carboxylic acid 5-chloro-2-tetrazol-1-yl-benzylamide]"
10,1,"CC(C)(C)C[C@@H](N)C(=O)N1C[C@@H]2C[C@@H]2[C@H]1C(=O)NCc1cc(Cl)ccc1-n1cnnn1 [Example 18, (1S,2S,5R)-3-((R)-2-Amino-4,4-dimethyl-pentanoyl)-3-aza-bicyclo[3.1.0]hexane-2-carboxylic acid 5-chloro-2-tetrazol-1-yl-benzylamide hydrochloride]"
